Active and inactive are the calls of the source. No cut-off for these calls is given here.
Assays:
Format in all cases: functional, organism-based
Mus musculus [1] = test: Antidepressant activity against dark-induced depression in Albino Swiss mouse assessed as decrease in immobility period at 30 mg/kg, ip once daily for 4 days and 30 mins before test on day 5 by forced swimming test; parameters: dose 30 mg/kg
Mus musculus [2] = test: Antidepressant activity against dark-induced depression in Albino Swiss mouse assessed as decrease in immobility period at 15 mg/kg, ip once daily for 4 days and 30 mins before test on day 5 by forced swimming test; parameters: dose 15 mg/kg
Mus musculus [3] = test: Antidepressant activity against dark-induced depression in Albino Swiss mouse assessed as increase in brain serotonin level at 15 mg/kg, ip once daily for 4 days and 30 mins before test on day 5; parameters: dose 15 mg/kg
Mus musculus [4] = test: Antidepressant activity against dark-induced depression in Albino Swiss mouse assessed as increase in brain serotonin level at 20 mg/kg, ip once daily for 4 days and 30 mins before test on day 5; parameters: dose 20 mg/kg
Mus musculus [5] = test: Antidepressant activity against dark-induced depression in Albino Swiss mouse assessed as decrease in immobility period at 20 mg/kg, ip once daily for 4 days and 30 mins before test on day 5 by forced swimming test; parameters: dose 20 mg/kg

Row | SMILES | Activity (Mus musculus [1]) | Activity (Mus musculus [2]) | Activity (Mus musculus [3]) | Activity (Mus musculus [4]) | Activity (Mus musculus [5])
1 | Cc1ccc(N2C(=O)[C@@H]3[C@H]([C@H]4C(=O)N(C5CCCCC5)[C@H]4c4ccc(Cl)cc4)C=CC[C@@H]3C2=O)cc1 | inactive | inactive | inactive |  | 
2 | O=C1OC(=O)[C@H]2CC=C[C@@H]([C@H]3C(=O)N(c4ccccc4)[C@@H]3c3ccccc3)[C@@H]12 | Active | Active | Active |  | 
3 | O=C1C=CC(=O)[C@H]2CC=C[C@@H]([C@H]3C(=O)N(C4CCCCC4)[C@H]3c3ccccc3)[C@@H]12 | Active | Active | Active |  | 
4 | CNCCC(Oc1ccc(C(F)(F)F)cc1)c1ccccc1 (stereo not given) |  |  |  | Active | Active
5 | COc1ccc([C@@H]2[C@@H]([C@@H]3C=CC[C@@H]4C(=O)N(c5ccccc5)C(=O)[C@H]34)C(=O)N2c2ccccc2)cc1 | Active | Active | Active | Active | 

From ChEMBL document CHEMBL1142501, “PASS-assisted exploration of antidepressant activity of 1,3,4-trisubstituted-beta-lactam derivatives” (Bioorg Med Chem Lett, 2008)
